Experiments:
SARS-CoV-2 M^pro [1] = target: T1, SARS-CoV-2 M^pro (Severe acute respiratory syndrome coronavirus 2, UniProt P0DTD1); assay: cell-based
SARS-CoV-2 PL^pro = SARS-CoV-2 PL^pro (Severe acute respiratory syndrome coronavirus 2, UniProt P0DTD1); assay: FRET-based enzymatic assay, SARS-CoV-2 PL^pro; assay type: biochemical
SARS-CoV-2 M^pro [2] = target: T1, SARS-CoV-2 M^pro; assay: FRET-based enzymatic assay, SARS-CoV-2 M^pro; assay type: biochemical; details: FRET assay M^pro IC50, 4 mM DTT

With `Oc1cc(O)cc(Oc2c(O)cc(O)c3c2Oc2c(O)cc(Oc4c(O)cc(Oc5c(O)cc(O)c6c5Oc5c(O)cc(O)cc5O6)cc4O)cc2O3)c1` [Dieckol, dieckol] as the molecule, how does the IC50 (SARS-CoV-2 M^pro [1]) read?
The IC50 was > 60 µM.

What about the IC50 (SARS-CoV-2 PL^pro) of the same molecule?
The IC50 was > 20 µM.

And the IC50 (SARS-CoV-2 M^pro [2])?
Its IC50 is > 20 µM.

Reference: paper PMC9095416 (Medicinal Chemistry Research, 2022)
